# Residues, ends and D or L forms follow the SMILES beside them.
row,SMILES,melting point
1,"COC(=O)[C@H](Cc1ccc(OCCCN(C)C)cc1)NC(=O)[C@H](C)NC(=O)Cc1cc(F)cc(F)c1 [Example 13, N-[N-(3,5-Difluorophenylacetyl)-L-alaninyl]-L-4-[3-(N,N-dimethylamino)propoxy]phenylalanine Methyl Ester]",153 to 155 °C
2,"CC(C)C[C@H](NC(=O)[C@H](C)NC(=O)Cc1cc(F)cc(F)c1)C(=O)OC(C)(C)C [Example 40, N-[N-(3,5-Difluorophenylacetyl)-L-alaninyl]-L-leucine tert-Butyl Ester]",128 °C
3,"COC(=O)[C@H](NC(=O)[C@H](C)NC(=O)Cc1cc(F)cc(F)c1)c1cccs1 [Example 178, Methyl N-[N-(3,5-Difluorophenylacetyl)-L-alaninyl]-(S)-2-amino-2-(2-thienyl)acetate]",180 to 181 °C
4,"COC(=O)[C@@H](NC(=O)[C@H](Cc1ccccc1)NC(=O)[C@H](C)NC(=O)Cc1cc(F)cc(F)c1)c1ccccc1 [Example 109, N-[N-[N-(3,5-Difluorophenylacetyl)-L-alaninyl]-L-phenylalaninyl]-L-phenylglycine Methyl Ester]",203 to 207 °C
5,"COC(=O)[C@H](Cc1ccccc1)NC(=O)[C@H](C)NC(=O)CC1CCCCC1 [Example 67, N-[N-(Cyclohexylacetyl)-L-alaninyl]-L-phenylalanine Methyl Ester]",156 to 158 °C
6,"CCOC(=O)[C@H](C)NC(=O)[C@@H](NC(=O)CC(C)C)c1ccccc1 [Example 74, N-[N-(Isovaleryl)-L-phenylglycinyl]-L-alanine Ethyl Ester] (HELM PEPTIDE1{[CC(C)CC(=O)[*:2]].[Phg].A.[CCO[*:1]]}$$$$V2.0)",198 to 201 °C
7,"CCOC(=O)C(NC(=O)[C@H](C)NC(=O)Cc1cc(F)cc(F)c1)c1ccc2sccc2c1 (stereo partly drawn) [Example 177, Ethyl N-[N-(3,5-Difluorophenylacetyl)-L-alaninyl]-2-amino-2-(benzothiophen-5-yl)acetate]",126.5 to 127.5 °C
8,"COC(=O)C(NC(=O)[C@H](C)NC(=O)Cc1cc(F)cc(F)c1)c1csc2ccccc12 (stereo partly drawn) [Example 175, Methyl N-[N-(3,5-Difluorophenylacetyl)-L-alaninyl]-2-amino-2-(benzothiophen-3-yl)acetate]",185 to 186 °C
9,"COC(=O)[C@H](Cc1ccccc1)NC(=O)[C@H](C)NC(=O)CC1CC1 [Example 72, N-[N-(Cyclopropylacetyl)-L-alaninyl]-L-phenylalanine Methyl Ester]",128 to 131 °C
10,"CCOC(=O)C(NC(=O)[C@H](C)NC(=O)Cc1cc(F)cc(F)c1)c1ccccn1 (stereo partly drawn) [Example 65, Ethyl N-[N-(3,5-Difluorophenylacetyl)-L-alaninyl]-2-amino-2-(2-pyridyl)acetate]",123 to 125 °C
11,"COC(=O)C(NC(=O)[C@H](C)NC(=O)Cc1cc(F)cc(F)c1)c1cc2cc(Cl)ccc2s1 (stereo partly drawn) [Example 173, Methyl N-[N-(3,5-Difluorophenylacetyl)-L-alaninyl]-2-amino-2-(5-chlorobenzothiophen-2-yl)acetate]",189 to 190 °C
12,"C[C@H](NC(=O)Cc1cc(F)cc(F)c1)C(=O)NCC(=O)OCc1ccccc1 [Example 73, N-[N-(3,5-Difluorophenylacetyl)-L-alaninyl]glycine Benzyl Ester]",167.5 °C
13,"COC(=O)C(NC(=O)[C@H](C)NC(=O)Cc1cc(F)cc(F)c1)c1ccc(OC)cc1 (stereo partly drawn) [Example 64, Methyl N-[N-(3,5-Difluorophenylacetyl)-L-alaninyl]-2-amino-2-(4-methoxyphenyl)acetate]",170 to 174 °C

# Further lines, results first:
row,melting point,SMILES
1,231.4 °C,"O=C(Cc1cc(F)cc(F)c1)N[C@H](C(=O)N[C@H](CO)c1ccccc1)c1ccccc1 [Example 245, N-[N-(3,5-Difluorophenylacetyl)-L-phenylglycinyl]-L-phenylglycinol]"
2,225 to 226.5 °C,"COC(=O)[C@@H](NC(=O)[C@@H](NC(=O)Cc1cc(F)cc(F)c1)C1CC1)c1ccccc1 [Example 257, N-[N-(3,5-Difluorophenylacetyl)-(S)-2-amino-2-(cyclopropyl)acetyl]-L-phenylglycine Methyl Ester]"
3,201.4 °C,"O=C(CC1CCCC1)N[C@H](C(=O)N[C@H](CO)c1ccccc1)c1ccccc1 [Example 247, N-[N-(Cyclopentaneacetyl)-L-phenylglycinyl]-L-phenylglycinol]"
4,226.5 °C,"COC(=O)[C@@H](NC(=O)[C@@H](NC(=O)Cc1cc(F)cc(F)c1)C(C)C)c1ccccc1 [Example 194, N-[N-(3,5-Difluorophenylacetyl)-L-valinyl]-L-phenylglycine Methyl Ester]"
5,152 to 153.5 °C,"COC(=O)CNC(=O)[C@H](C)NC(=O)Cc1ccccc1 [Example 206, N-[N-(Phenylacetyl)-L-alaninyl]glycine Methyl Ester] (HELM PEPTIDE1{[O=C(Cc1ccccc1)[*:2]].A.G.[CO[*:1]]}$$$$V2.0)"
6,178.4 °C,"COC(=O)[C@@H](NC(=O)[C@H](CC(C)C)NC(=O)Cc1cc(F)cc(F)c1)c1ccccc1 [Example 196, N-[N-(3,5-Difluorophenylacetyl)-L-leucinyl]-L-phenylglycine Methyl Ester]"
7,222.8 °C,"COC(=O)[C@@H](NC(=O)[C@@H](NC(=O)Cc1cc(F)cc(F)c1)c1ccccc1)c1ccccc1 [Example 199, N-[N-(3,5-Difluorophenylacetyl)-L-phenylglycinyl]-L-phenylglycine Methyl Ester]"

# From patent US6476263B1, “Compounds for inhibiting β-amyloid peptide release and/or its synthesis” (Elan Pharmaceuticals, Inc., priority 1996, dated 2002)
